Laboratory results published in patent US8637670B2, “Imidazo [4,5-C]quinoline derivatives and their use in the treatment of tumors and/or inflammation” (Piramal Enterprises Limited, priority 2009, dated 2014).

Experiments:
A549 = assay: Cytotoxicity, propidium iodide assay, A549; format: cell-based; conditions: Homo sapiens; Lung, A549, 48 hours treatment; read-out: IC50, C1a (A549)
Experimental: (§1) The assay was designed as in the reference, Anticancer Drugs, 2002, 13, 1-8, the disclosure of which is incorporated by reference for the teaching of the assay.
(§2) Cells from cell lines as mentioned in the table given below were seeded at a density of 3000 cells/well in a white opaque 96-well plate. Following incubation at 37° C./5% CO2 for a period of 18-24 hours, the cells were treated with various concentrations (stock solution was prepared in DMSO and subsequent dilutions were made in media as per ATCC guidelines) of the compounds of Example 1-40 was for a period of 48 hours. At the end of treatment, the spent culture medium was discarded, the cells were washed with 1×PBS and 200 μl of 7 μg/ml propidium iodide was added to each well. The plates were frozen at −70° C. for at least 24 hours. For analysis, the plates were brought to RT, allowed to thaw and were read in PoleStar fluorimeter with the fluorescence setting. The percentage of viable cells in the non-treated set of wells was considered to be 100 and the percentage viability following treatment was calculated accordingly. IC50 values were calculated from graphs plotted using these percentages. Table 4 depicts the IC50 values of compounds of Example 1-40 in individual cell lines.
(§3) The abbreviations for the Cell Lines as used in Table 4 are: […]

H460 = assay: Cytotoxicity, propidium iodide assay, H460; format: cell-based; conditions: Homo sapiens, NCI-H460; Lung, H460, 48 hours treatment; read-out: IC50, C1b (H460)
Experimental: as §1, §2, §3

PC3 = assay: Cytotoxicity, propidium iodide assay, PC3; format: cell-based; conditions: Homo sapiens, PC-3; Prostate, PC3, 48 hours treatment; read-out: IC50, C2a (PC3)
Experimental: as §1, §2, §3

OVCAR 3 = assay: Cytotoxicity, propidium iodide assay, OVCAR 3; format: cell-based; conditions: Homo sapiens; Ovarian, OVCAR 3, 48 hours treatment; read-out: IC50, C3b (OVCAR 3)
Experimental: as §1, §2, §3

HCT116 = assay: Cytotoxicity, propidium iodide assay, HCT116; format: cell-based; conditions: Homo sapiens, HCT-116; Colon, HCT116, 48 hours treatment; read-out: IC50, C4a (HCT116)
Experimental: as §1, §2, §3

U 373 = assay: Cytotoxicity, propidium iodide assay, U 373; format: cell-based; conditions: Homo sapiens, U373 MG; Glioblastoma, U 373, 48 hours treatment; read-out: IC50, C7a (U 373)
Experimental: as §1, §2, §3

U 87 MG = assay: Cytotoxicity, propidium iodide assay, U 87 MG; format: cell-based; conditions: Homo sapiens, Glioblastoma, 48 hours treatment, read-out: IC50, C7b (U 87 MG)
Experimental: as §1, §2, §3

IL-6 = assay: Human monocyte assay, LPS-stimulated IL-6 (ELISA); format: cell-based; conditions: human monocytes, 1 μg/ml LPS, 5 hours
Experimental: (§4) The assay was designed as in the reference, Physiol. Res., 2003, 52, 593-598, the disclosure of which is incorporated by reference for the teaching of the assay.
(§5) Peripheral blood mononuclear cells (hPBMC) were harvested from human blood and suspended in RPMI 1640 culture medium containing 10% FCS, 100 U/mL penicillin and […] streptomycin (assay medium). Monocytes in the hPBMCs were counted using a Coulter Counter following which the cells were resuspended at 2×10^5 monocytes/mL. A cell suspension containing 2×10^4 monocytes was aliquoted per well of a 96-well plate. Subsequently, the hPBMCs were incubated for 4-5 hours at 37° C. under 5% CO2 (During the incubation, the monocytes adhered to the bottom of 96-well plastic culture plate). Following the incubation, the non-adherent lymphocytes were washed with assay medium and the adherent monocytes re-fed with assay medium. After a 48-hour incubation period (37° C., 5% CO2), monocytes were pretreated with various concentrations of compounds of Example 1-40 (prepared in DMSO) or vehicle (0.5% DMSO) for 30 minutes and stimulated with 1 μg/ml LPS (Escherchia coli 0111:B4, Sigma Chemical Co., St. Louis, Mo.). The incubation was continued for 5 hours at 37° C., 5% CO2. Supernatants were harvested, assayed for IL-6 and TNF-α by ELISA as described by the manufacturer (BD Biosciences, USA). Dexamethasone (10 μM) was used as standard for this assay. The 50% inhibitory concentration (IC50) values were calculated by a nonlinear regression method. In all experiments, a parallel plate was run to ascertain the toxicity of compounds of Example 1-40. The toxicity was determined using the MTS assay as described in Am. J. Physiol. Cell Physiol., 2003, 285, C813-C822.

PI3Kα kinase = molecular target: T1, PI3Kα kinase (Homo sapiens, UniProt P42336); assay: PI3Kα assay (32P incorporation into phosphatidylinositol, TLC densitometry); format: biochemical; conditions: At 100 nM
T1 construct: purchased Millipore, USA
T1 sequence (P42336 whole entry): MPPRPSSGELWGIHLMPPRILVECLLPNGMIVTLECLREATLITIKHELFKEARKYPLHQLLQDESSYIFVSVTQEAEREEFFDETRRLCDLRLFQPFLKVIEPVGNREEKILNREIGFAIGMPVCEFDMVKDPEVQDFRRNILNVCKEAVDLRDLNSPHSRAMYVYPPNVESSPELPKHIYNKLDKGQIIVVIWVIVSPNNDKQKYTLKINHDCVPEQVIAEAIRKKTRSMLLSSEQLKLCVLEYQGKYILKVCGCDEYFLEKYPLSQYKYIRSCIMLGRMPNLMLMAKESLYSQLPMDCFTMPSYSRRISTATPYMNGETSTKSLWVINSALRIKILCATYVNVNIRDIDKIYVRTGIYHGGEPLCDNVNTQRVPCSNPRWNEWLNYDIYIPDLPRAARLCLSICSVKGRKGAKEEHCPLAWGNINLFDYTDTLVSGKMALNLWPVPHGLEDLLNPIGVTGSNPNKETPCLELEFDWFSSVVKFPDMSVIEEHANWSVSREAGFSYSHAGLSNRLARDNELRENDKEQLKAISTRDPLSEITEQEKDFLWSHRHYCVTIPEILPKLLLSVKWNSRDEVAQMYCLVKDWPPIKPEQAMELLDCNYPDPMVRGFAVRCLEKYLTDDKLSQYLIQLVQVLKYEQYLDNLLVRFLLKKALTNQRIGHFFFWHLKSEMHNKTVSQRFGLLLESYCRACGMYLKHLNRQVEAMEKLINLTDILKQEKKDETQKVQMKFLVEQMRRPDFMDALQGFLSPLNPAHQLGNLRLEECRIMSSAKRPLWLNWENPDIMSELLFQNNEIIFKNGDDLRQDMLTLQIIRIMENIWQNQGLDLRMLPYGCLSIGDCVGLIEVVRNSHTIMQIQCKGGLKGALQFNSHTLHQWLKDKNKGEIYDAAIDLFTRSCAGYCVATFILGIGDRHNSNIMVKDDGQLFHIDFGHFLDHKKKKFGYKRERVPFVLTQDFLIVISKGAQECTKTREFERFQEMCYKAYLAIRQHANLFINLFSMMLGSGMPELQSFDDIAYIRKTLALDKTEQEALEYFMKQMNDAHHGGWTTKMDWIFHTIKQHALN
T1 sequence (P27986 whole entry partner): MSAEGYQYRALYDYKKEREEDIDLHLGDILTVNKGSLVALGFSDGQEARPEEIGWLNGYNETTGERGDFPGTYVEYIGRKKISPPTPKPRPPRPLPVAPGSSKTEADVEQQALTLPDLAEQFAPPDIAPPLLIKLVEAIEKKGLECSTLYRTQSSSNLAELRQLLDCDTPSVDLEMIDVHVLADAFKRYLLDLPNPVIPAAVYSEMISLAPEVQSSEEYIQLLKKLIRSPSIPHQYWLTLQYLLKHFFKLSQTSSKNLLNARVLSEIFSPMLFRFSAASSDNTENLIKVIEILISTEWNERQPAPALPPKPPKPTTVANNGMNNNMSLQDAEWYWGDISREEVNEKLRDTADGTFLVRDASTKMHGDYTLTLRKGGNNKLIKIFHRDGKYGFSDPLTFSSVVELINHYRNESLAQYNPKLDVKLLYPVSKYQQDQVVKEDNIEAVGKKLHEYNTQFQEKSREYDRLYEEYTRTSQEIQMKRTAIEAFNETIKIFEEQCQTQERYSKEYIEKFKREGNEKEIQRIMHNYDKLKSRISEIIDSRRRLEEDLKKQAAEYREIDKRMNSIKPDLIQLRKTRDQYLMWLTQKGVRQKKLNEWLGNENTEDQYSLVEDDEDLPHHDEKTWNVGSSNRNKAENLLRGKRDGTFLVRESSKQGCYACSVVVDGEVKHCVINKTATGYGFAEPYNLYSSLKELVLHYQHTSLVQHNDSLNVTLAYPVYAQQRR
Experimental: The assay was designed as in the reference, Cell, 2006, 125, 733-47 (Supplemental Data), the disclosure of which is incorporated by reference for the teaching of the assay.
The kinase reaction was carried out in a 25 μL volume in a 1.5 mL microcentrifuge tube. The reaction mixture consisted of kinase buffer (10 mM Hepes, pH 7.5, 50 mM MgCl2), 20 ng PI3Kα kinase (Millipore, USA), 12.5 μg phosphatidylinositol (PI), 10 μM ATP and 1 μCi ^32γ P dATP. Compounds of Example 1-40 were added at concentrations (stock solution was prepared in DMSO and subsequent dilutions were made in kinase buffer) as mentioned in the table. The reaction mixture was incubated at 30° C. for 20 minutes and was terminated by adding 1:1 mixture of MeOH and chloroform. The tube contents were mixed on a vortex mixer and centrifuged at 10000 rpm for 2 minutes. 10 μL of the organic (lower) phase was spotted on to a TLC plate (silica, mobile phase: n-propanol and 2 M glacial acetic acid in 65:35 ratio). The plates were dried and exposed to an X-ray film. The bands appearing as a result of ^32γ P incorporation in PI were quantitated using the QuantityOne (BioRad, USA) densitometry program. PI-103 (Calbiochem, USA) was used as a standard.

PI3K α = assay: PI3K activity assay, cell-based ELISA of AKT (Ser 473) phosphorylation; conditions: Homo sapiens, Ovarian cell line A2780, 20% FCS stimulation
Experimental: The assay was designed as in the reference, Biochemical Journal, 2000, 350, 717-722, the disclosure of which is incorporated by reference for the teaching of the assay.
Seed cells (Ovarian cell line A2780, ATCC) were plated in a 96 well microtitre plate at a density of 50,000 cells/cm^2 in appropriate complete cell culture medium. The cells were allowed to adhere for 18-24 hours. The cells were allowed to starve for 24 hours. The cells were pretreated (in triplicates) with the compounds of Example 1-40 (stock solution was prepared in DMSO and subsequent dilutions were made in kinase buffer) at a concentration of 10 μM for one hour. Then the cells were stimulated with 20% FCS for 30 minutes. A typical assay would consist of a set of unstimulated cells, a set of stimulated cells and a set of cells treated with compounds of Example 1-40 and a set of cells treated with the stimulator. The medium was discarded. The cells were fixed with 100 μL of 3.7% formaldehyde for 15 minutes. The formaldehyde was discarded by inverting the plate and tapping it on a thick tissue paper layer to remove traces. The cells were washed and permeabilized with 200 μL PBS+Triton-X 100 solution (hereafter referred to as PBS-Triton, containing 0.1% triton-X 100 in 1×PBS) three times, incubating the cells each time for 5 minutes. 100 μL blocking solution (10% FCS in PBS-Triton) was added and incubated for 1 hour at 25° C. The blocking solution was discarded and cells were incubated with the primary antibody in PBS-Triton at a dilution of 1:500 for 1 hour at RT (25° C.). [The primary antibody is Phospho-AKT (Ser 473); Cell Signaling; USA, Cat. No. 9271]. The primary antibody solution was discarded and the cells were washed 3 times with PBS-Triton solution and incubated with the HRP-conjugated secondary antibody in PBS-Triton at a dilution of 1:500 for 1 hour at RT (25° C.). The cells were washed 3 times with PBS-Triton followed by two washes with PBS (to remove traces of triton-X 100). The OPD (o-phenylene diamine dihydrochloride) substrate was prepared for detection of the signal by dissolving one tablet set (two tablets) of SigmaFast OPD (Sigma, USA, Cat No. P9187) in 20 mL distilled water. It should be kept protected from light. 100 μL OPD solutions was added to the wells and the plate was incubated in the dark for 3-5 minutes (depending upon the development of the color). The reaction was stopped by adding 50 μL 2 NH2SO4. The absorbance was measured at 490 nm. The values were expressed in the treated samples, in terms of percentage or fold decrease in AKT phosphorylation with respect to the induced sample. PI-103 (Calbiochem, USA) was used as a standard.

A2780 = assay: Cytotoxicity, propidium iodide assay, A2780; format: cell-based; conditions: Homo sapiens; Ovarian, A2780, 48 hours treatment; read-out: IC50, C3a (A2780)
Experimental: as §1, §2, §3

PANC 1 = assay: Cytotoxicity, propidium iodide assay, PANC 1; format: cell-based; conditions: Homo sapiens; Pancreatic, PANC 1, 48 hours treatment; read-out: IC50, C5a (PANC 1)
Experimental: as §1, §2, §3

TNF-α = assay: Human monocyte assay, LPS-stimulated TNF-α (ELISA); format: cell-based; conditions: human monocytes, 1 μg/ml LPS, 5 hours, read-out: TNFα (IC50)
Experimental: as §4, §5

| SMILES | IC50 (A549) [µM] | IC50 (H460) [µM] | IC50 (PC3) [µM] | IC50 (OVCAR 3) [µM] | IC50 (HCT116) [µM] | IC50 (U 373) [µM] | IC50 (U 87 MG) [µM] | IC50 (IL-6) [µM] | inhibition at 0.1 µM (PI3Kα kinase) [%] | inhibition at 10 µM (PI3K α) [%] | IC50 (A2780) [µM] | IC50 (PANC 1) [µM] | IC50 (TNF-α) [µM] |
| --- | --- | --- | --- | --- | --- | --- | --- | --- | --- | --- | --- | --- | --- |
| Cc1ccc([N+](=O)[O-])cc1S(=O)(=O)n1c(=O)n(-c2ccc(C(C)(C)C#N)cc2)c2c3cc(Br)ccc3ncc21 [Example 4, 2-(4-(8-Bromo-3-(2-methyl-5-nitrophenylsulfonyl)-2-oxo-2,3-dihydro-1H-imidazo[4,5-c]quinolin-1-yl)phenyl)-2-methylpropanenitrile] | 1 to 3 | 1 to 3 | 1 to 3 | > 3 | > 3 | > 3 | 1 to 3 | 1 to 10 |  |  |  |  |  |
| Cc1ccc(S(=O)(=O)n2c(=O)n(-c3ccc(C(C)(C)C#N)cc3)c3c4cc(Br)ccc4ncc32)cc1F [Example 5, 2-(4-(8-Bromo-3-(3-fluoro-4-methylphenylsulfonyl)-2-oxo-2,3-dihydro-1H-imidazo[4,5-c]quinolin-1-yl)phenyl)-2-methylpropanenitrile] | 1 to 3 | 1 to 3 | 1 to 3 | > 3 | > 3 | > 3 | 1 to 3 |  |  |  |  |  |  |
| Cc1cc(C)cc(S(=O)(=O)n2c(=O)n(-c3ccc(C(C)(C)C#N)cc3)c3c4cc(Br)ccc4ncc32)c1 [Example 6, 2-(4-(8-Bromo-3-(3,5-dimethylphenylsulfonyl)-2-oxo-2,3-dihydro-1H-imidazo[4,5-c]quinolin-1-yl)phenyl)-2-methylpropanenitrile] | > 3 | > 3 | 1 to 3 | > 3 | > 3 | > 3 | > 3 | > 30 | > 50 | 10 to 50 |  |  |  |
| CC(C)(C#N)c1ccc(-n2c(=O)n(S(=O)(=O)c3cccc(C(F)(F)F)c3)c3cnc4ccc(Br)cc4c32)cc1 [Example 13, 2-(4-(8-Bromo-2-oxo-3-(3-(trifluoromethyl)phenylsulfonyl)-2,3-dihydro-1H-imidazo[4,5-c]quinolin-1-yl)phenyl)-2-methylpropanenitrile] | > 3 | > 3 | > 3 | > 3 | > 3 | > 3 | > 3 |  | 10 to 50 |  |  |  |  |
| CC(C)(C#N)c1ccc(-n2c(=O)n(S(=O)(=O)c3cccc(Br)c3)c3cnc4ccc(Br)cc4c32)cc1 [Example 15, 2-(4-(8-Bromo-3-(3-bromophenylsulfonyl)-2-oxo-2,3-dihydro-1H-imidazo[4,5-c]quinolin-1-yl)phenyl)-2-methylpropanenitrile] | > 3 |  |  |  | 1 to 3 |  |  | 1 to 10 |  |  | > 3 | > 3 |  |
| CC(C)(C#N)c1ccc(-n2c(=O)n(C(=O)Nc3ccccc3Br)c3cnc4ccc(Br)cc4c32)cc1 [Example 33, 8-Bromo-N-(2-bromophenyl)-1-(4-(2-cyanopropan-2-yl)phenyl)-2-oxo-1H-imidazo[4,5-c]quinoline-3(2H)-carboxamide] | 1 to 3 | 1 to 3 | > 3 | > 3 | > 3 | > 3 | > 3 | > 30 | > 50 |  |  |  | ≤ 1 |
| CC(=O)n1c(=O)n(-c2ccc(C(C)(C)C#N)cc2)c2c3cc(Cl)ccc3ncc21 [Example 36, 2-(4-(3-Acetyl-8-chloro-2-oxo-2,3-dihydro-1H-imidazo[4,5-c]quinolin-1-yl)phenyl)-2-methylpropanenitrile] | 1 to 3 | ≤ 1 | > 3 | > 3 | > 3 | > 3 | > 3 |  | 10 to 50 |  |  |  |  |
